Measured values published in patent publication US20080279897A1, “Method of Treating Cellular Damage” (MEDVET SCIENCE PTY. LTD., priority 2005, published 2008).
Entries after “also recorded” stand apart in the source; their conditions may differ.

Tests used:
[1] = tested on: SphK; test: SphK activity in aorta and heart of STZ-induced diabetic rats; format: in vivo, rat; settings: STZ-induced diabetic rats treated with insulin, 2 wk post-onset of diabetes
Description: Male Sprague-Dawley rats weighing 270-290 g were housed in a room under controlled temperature conditions (22° C.) and 12/12-hr of light/dark cycles. Diabetes was induced with 80 mg/kg streptozotocin (STZ) (Sigma-Aldrich) dissolved in citrate buffer (20 mM, pH 4.5) that was administered as a single intraperitoneal injection. Control rats were injected with an equivalent volume of the vehicle only. After injection (24 h), diabetes was diagnosed by the development of hyperglycaemia (>14 mmol/L blood glucose). One-half of the diabetic rats were randomly selected to receive insulin treatment (Linplant, one implant/200 g body wt; LinShin, Canada). Blood glucose levels were monitored every 4 days using Glucostix reagent strips (Boehringer Mannheim, Indianapolis, Ind.). Two weeks after the onset of diabetes, rats were killed for the study. […]
As described previously (Xia et al., 1999, J. Biol. Chem. 274:34499-34505), SphK activity was routinely determined using D-erythro-sphingosine (Biomol, Plymouth Meeting, Pa.) and [γ^32P]ATP (Geneworks, Adelaide, Australia) as substrates, and defined as picomoles of S1P formed per min per mg protein. The formation of S1P in vivo was measured in the permeabilized cells as previously described (Xia et al., 1998, Proc. Natl. Acad. Sci. U.S.A 95:14196-14201).

[2] = Glycemic control in STZ-induced diabetic rats; format: in vivo, rat; settings: insulin pump, within several hours
Description: Male Sprague-Dawley rats weighing 270-290 g were housed in a room under controlled temperature conditions (22° C.) and 12/12-hr of light/dark cycles. Diabetes was induced with 80 mg/kg streptozotocin (STZ) (Sigma-Aldrich) dissolved in citrate buffer (20 mM, pH 4.5) that was administered as a single intraperitoneal injection. Control rats were injected with an equivalent volume of the vehicle only. After injection (24 h), diabetes was diagnosed by the development of hyperglycaemia (>14 mmol/L blood glucose). One-half of the diabetic rats were randomly selected to receive insulin treatment (Linplant, one implant/200 g body wt; LinShin, Canada). […] […] All experiments were conducted in accordance with the PC-2 procedure of Institute of Medical and Veterinary Science (IMVS) and approved by the IMVS Animal Ethics Committee.

[3] = tested on: sphingosine kinase; test: Sphingosine kinase activity in vitro (vascular endothelial cells); format: cell-based

In the case of insulin, the “SphK activity in aorta of diabetic rats” value [1] is reported as “significant reduction; also recorded: completely prevented”, the “SphK activity in heart of diabetic rats” value [1] is reported as “significant reduction; also recorded: completely prevented” and the glycemic control [2] is reported as “near euglycemia”. The “inhibitory effect on sphingosine kinase activity in vitro” value [3] was “no inhibitory effect”.
